Assay results reported in patent US20250376522A1, “Targeting Cells with a Combination of CXCR2 Inhibition and CD47 Blockade” (The Board of Trustees of the Leland Stanford Junior …, priority 2022, published 2025).

What was measured:
[1] = molecular target: T1, CXCR2 (Homo sapiens, UniProt P25025); conditions: read-out: Kd of IL-8 binding to CXCR2; cited from earlier work
T1 sequence (P25025 1-360): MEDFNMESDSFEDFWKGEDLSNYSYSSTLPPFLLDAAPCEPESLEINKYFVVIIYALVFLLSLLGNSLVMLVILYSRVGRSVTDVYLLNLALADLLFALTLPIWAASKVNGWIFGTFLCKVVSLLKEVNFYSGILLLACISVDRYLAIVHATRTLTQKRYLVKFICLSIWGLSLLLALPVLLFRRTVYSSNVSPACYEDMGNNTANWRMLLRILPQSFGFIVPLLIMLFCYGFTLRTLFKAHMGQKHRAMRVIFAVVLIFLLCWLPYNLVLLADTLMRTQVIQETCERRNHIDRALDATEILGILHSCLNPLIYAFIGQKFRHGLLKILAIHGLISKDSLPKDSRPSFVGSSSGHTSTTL

[2] = molecular target: T2, CXCR1 (Homo sapiens, UniProt P25024); conditions: read-out: Kd of IL-8 binding to CXCR1; cited from earlier work
T2 sequence (P25024 1-350): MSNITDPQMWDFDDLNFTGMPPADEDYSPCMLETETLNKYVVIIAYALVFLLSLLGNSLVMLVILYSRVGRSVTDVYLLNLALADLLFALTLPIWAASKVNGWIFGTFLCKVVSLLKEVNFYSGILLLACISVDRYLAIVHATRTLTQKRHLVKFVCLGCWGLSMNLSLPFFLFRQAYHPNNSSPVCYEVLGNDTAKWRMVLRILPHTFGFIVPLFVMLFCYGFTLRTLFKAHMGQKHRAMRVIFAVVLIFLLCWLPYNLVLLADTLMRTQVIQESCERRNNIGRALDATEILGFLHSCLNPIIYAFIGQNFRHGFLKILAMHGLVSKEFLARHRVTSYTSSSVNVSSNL

[3] = molecular target: T1, CXCR2; conditions: cited from earlier work
[4] = test system: CXCR2+ G-MDSCs; test: Thioglycolate-induced peritonitis, G-MDSC recruitment to peritoneum (flow cytometry); assay type: in vivo, mouse; conditions: 2 mg/kg IP at thioglycolate infusion and 12 hr later; peritoneal cells harvested at 24 h; control and Poly I:C-treated mice
Procedure: FIGS. 3A-3B. A) Representative flow cytometry plots of CXCR2 expression on peritoneal M-MDSCs and G-MDSCs of control and Poly I:C-treated CSF1R^FIFI-Mx1-Cre mice (n=5 mice). Peritoneal cells were harvested […] after thioglycolate infusion (n=5 mice). B) Representative flow cytometry plots of peritoneal M-MDSCs and G-MDSCs harvested 24 hrs after thioglycolate infusion of control and Poly I:C-treated CSF1R^FI/FI-Mx1-Cre mice (n=5 mice). Mice were either untreated or treated with 2 mg/kg SB225002 (CXCR2 inhibitor) at time of thioglycolate infusion and 12 hrs before harvesting (n=5 mice).
Blocking G-MDSC recruitment in thioglycolate-induced peritonitis with a CXCR2 inhibitor. The C-X-C chemokine receptor 2 (CXCR2) signaling axis plays a key role in the migration of immunosuppressive MDSCs. To identify whether these subsets of MDSCs in the peritoneal cavity elicited through thioglycolate-induced peritonitis express CXCR2, peritoneal cells were harvested 24 hours after intraperitoneal injection of thioglycolate and were analyzed by flow cytometry (FIG. 3A). […] At the 24 h time point, peritoneal cells were harvested and analyzed by flow cytometry (FIG. 3B).
Flow cytometry. […] Fluorescence compensations were performed using single-stained UltraComp eBeads (Affymetrix). […] Data was acquired using a FACSAria II cell sorter (BD Biosciences) and analyzed using FlowJo software. […]

[5] = test system: B16-F10 melanoma; test: B16-F10 melanoma in control and Poly I:C-treated CSF1R Fl/Fl-Mx1-Cre mice treated with CXCR2 inhibitor; assay type: in vivo, mouse
Procedure: FIGS. 5A-5D. A) CSF1R^FI/FI-Mx1-Cre mice received three intraperitoneal injections of Poly I:C (100 ug) and were rested for one week. 5×10^5 B16-F10 mouse melanoma cells were then subcutaneously engrafted into flanks of control and Poly I:C-treated CSF1R^FIFI-Mx1-Cre mice. Following the day of engraftment, mice were either untreated or treated daily with 2 mg/kg SB225002 (CXCR2 inhibitor). Burden of B16-F10 melanoma tumors in control and Poly I:C-treated CSF1R^FIFI-Mx1-Cre mice treated with or without SB225002. Data are mean±s.e.m. (n=5 mice per group). B) Flow cytometry analysis of M-MDSCs and G-MDSCs in tumors of mice. MDSCs are gated on CD11b+ cells. Data are mean±s.e.m. (n=5 mice per group). C) Flow cytometry analysis of M-MDSCs and G-MDSCs in bone marrow of tumor-bearing mice. MDSCs are gated on CD11b+ cells. Data are mean±s.e.m. (n=5 mice per group). D) Flow cytometry analysis of M-MDSCs and G-MDSCs in the peripheral blood of tumor-bearing mice. MDSCs are gated on CD11b+ cells. Data are mean±s.e.m. (n=5 mice per group).
Targeting G-MDSCs in B16-F10 melanoma with a CXCR2 inhibitor. To determine whether targeting CXCR2+ G-MDSCs could lead to an anti-tumor response, poly I:C and PBS mice were subcutaneously engrafted with B16-F10 melanoma. The day after engraftment, mice were treated intraperitoneally with PBS or SB225002 six days per week. […] Tumors were harvested and subjected to flow cytometry for immunophenotyping.
Flow cytometry. Samples were blocked with monoclonal antibody to CD16/32 (TruStain fcX, BioLegend) before staining with antibody panels. Samples were stained for 30 min on ice, and subsequently washed with FACS buffer (PBS with 1% FBS buffer). Fluorescence compensations were performed using single-stained UltraComp eBeads (Affymetrix). The following antibodies were used for FACS analysis: Anti-CD11b (M1/70 BD Biosciences); Anti-F4/80 (BM8 BioLegend); Anti-Ly6G (1A8 BioLegend), Anti-Ly6C (HK1.4 BioLegend); Anti-CXCR2 (SA044G4 BioLegend). SYTOX blue dead cell stain (Invitrogen) was used for dead cell exclusion. Data was acquired using a FACSAria II cell sorter (BD Biosciences) and analyzed using FlowJo software.
In vivo tumor experiments and treatments. Mice 6-8 weeks of age were given subcutaneous injection of B16-F10 melanoma cells in PBS into the right flank. Tumor growth was measured by using calipers and volumes were calculated by using the formula: volume= 4/3π×(x/2)2×(y/2), where x is the largest measurable dimension of the tumor and y is the dimension immediately perpendicular to x. Tumor volumes were evaluated using two-way ANOVA in GraphPad Prism. For tumor treatments, mice were given mouse IgG1 isotype control clone MOPC21 (BioXCell), anti-CD47 mAb clone MIAP410 (BioXCell), or SB225002 (ToCris) by intraperitoneal injection.

**Q.** For “IL-8: chemokine ligand of CXCR1 and CXCR2”, which Kd [1] is on record?
**A.** ~4 nM

**Q.** And the Kd [2]?
**A.** ~4 nM

**Q.** With `O=C(Nc1ccc(F)cc1)c1cnc(SCc2cc(OC(F)(F)F)ccc2B(O)O)nc1` [SX-682] as the compound, how does the Selective/Pan [3] read?
**A.** Pan

**Q.** What does the source list for `O=C(Nc1ccc([N+](=O)[O-])cc1O)Nc1ccccc1Br` [SB225002]?
**A.** Percentage of G-MDSCs in the peritoneal cavity [4]: significantly decreased percentage of G-MDSCs; Tumor progression (burden of B16-F10 melanoma tumors) ([5]; 2 mg/kg intraperitoneally from the day after engraftment, especially in mice expressing CSF1R): significantly decreased tumor progression; G-MDSCs in bone marrow of tumor-bearing mice ([5]; bone marrow, flow cytometry): significant decrease of G-MDSCs; G-MDSCs in peripheral blood of tumor-bearing mice ([5]; peripheral blood, flow cytometry): significant decrease of G-MDSCs; Tumor-infiltrating G-MDSCs ([5]; tumors, flow cytometry, gated on CD11b+ cells): significant decrease in tumor-infiltrating G-MDSCs; Selective/Pan [3]: Selective

**Q.** With `CC[C@@H](Nc1c(Nc2cccc(C(=O)N(C)C)c2O)c(=O)c1=O)c1ccc(C)o1` [Navaraxin, Navarixin] as the compound, how does the Selective/Pan [3] read?
**A.** Selective
